Test results reported in patent US20250230193A1, “CYCLIC COMPOUND HAVING SELECTIVE KRAS INHIBITORY EFFECT ON HRAS AND NRAS” (CHUGAI SEIYAKU KABUSHIKI KAISHA, priority 2022, published 2025).
*1 amine or outer side, *2 acyl side, *3 side chain or, on linkers, in order; H or OH if unused. Where a SMILES comes first, the peptide text is derived from it. Bridges are numbered along the chain shown (N, C = ends). [ ]: non-standard residue; d: D form. The star is where a group is joined. hPhe(3-Cl-4-CF3) = N[C@@H](CCc1ccc(C(F)(F)F)c(Cl)c1)C(=O)O; NPrPhe(4-CF3) = CCCN[C@@H](Cc1ccc(C(F)(F)F)cc1)C(=O)O; X48 = C=CCCN([C@@H](Cc1ccc(C)cc1)C(=O)[*:2])[*:1]; NMeGly(cPent) = CN[C@H](C(=O)O)C1CCCC1; Hyp = O=C(O)[C@@H]1C[C@@H](O)CN1; NMeD = CN[C@@H](CC(=O)O)C(=O)O; NMeL = CN[C@@H](CC(C)C)C(=O)O; Morpholide = C1CN(*)CCO1; Ac5c = NC1(C(=O)O)CCCC1; Ac4c = NC1(C(=O)O)CCC1; NEtG = CCNCC(=O)O; Sar = CNCC(=O)O

Tests used:
[1] = molecular target: GDP-bound HRAS wild-type protein (Homo sapiens, UniProt P01112); test: Binding to HRAS by surface plasmon resonance (SPR), Single Cycle Kinetics
GDP-bound HRAS wild-type protein, sequence (P01112 whole entry): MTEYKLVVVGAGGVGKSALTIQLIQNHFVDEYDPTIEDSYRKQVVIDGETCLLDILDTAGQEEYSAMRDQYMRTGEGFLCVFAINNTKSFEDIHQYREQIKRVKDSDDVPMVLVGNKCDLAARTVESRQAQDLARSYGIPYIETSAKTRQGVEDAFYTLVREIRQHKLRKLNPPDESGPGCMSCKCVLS

[2] = molecular target: GDP-bound NRAS wild-type protein (Homo sapiens, UniProt P01111); test: Binding to NRAS by surface plasmon resonance (SPR), Single Cycle Kinetics
GDP-bound NRAS wild-type protein, sequence (P01111 whole entry): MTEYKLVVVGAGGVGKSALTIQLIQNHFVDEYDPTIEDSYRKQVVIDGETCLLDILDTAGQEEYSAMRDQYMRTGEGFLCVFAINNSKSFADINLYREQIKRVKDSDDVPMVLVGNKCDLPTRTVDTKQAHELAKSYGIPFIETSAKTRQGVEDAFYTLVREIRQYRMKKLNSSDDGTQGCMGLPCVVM

[3] = SPR, GDP-bound wild-type proteins

CCCN(C)C(=O)[C@@H]1CC(=O)N(C)[C@@H](C(C)C)C(=O)N[C@@H]([C@@H](C)CC)C(=O)N(C)CC(=O)N(C)[C@H]2C/C=C\CCN(C2=O)[C@@H](Cc2ccc(C(F)(F)F)cc2)C(=O)N(C)CC(=O)N[C@@H](CCc2cc(F)c(C(F)(F)F)c(F)c2)C(=O)N2C[C@H](OCC)C[C@H]2C(=O)NC2(CCC2)C(=O)N(C)[C@@H](C2CCCC2)C(=O)N1C [PP1992]
HRAS/KRAS (ratio of KD value for HRAS to KD value for KRAS) ([1]; KD ratio, GDP-bound HRAS wild-type vs GDP-bound KRAS wild-type, SPR): B (a compound having 3 or more and less than 10 is denoted as B)
NRAS/KRAS (ratio of KD value for NRAS to KD value for KRAS) ([2]; KD ratio, GDP-bound NRAS wild-type vs GDP-bound KRAS wild-type, SPR): AA (a compound having 20 or more is denoted as AA)

CCO[C@@H]1C[C@H]2C(=O)NC3(CC(C)(C)C3)C(=O)N(C)[C@@H](C(CC)CC)C(=O)N(C)[C@H](C(=O)N(C)C)CC(=O)N(C)[C@@H](CC)C(=O)N[C@@H]([C@@H](C)CC)C(=O)N(C)CC(=O)N(C)[C@H]3C/C=C\CCN(C3=O)[C@@H](Cc3ccc(C)cc3)C(=O)N(C)CC(=O)N[C@@H](CCc3ccc(Cl)c(Cl)c3)C(=O)N2C1 [PP2188]
HRAS/KRAS (ratio of KD value with respect to HRAS to KD value with respect to KRAS) ([1]; SPR, GDP-bound HRAS wild-type vs GDP-bound KRAS wild-type): A (a compound having 10 or more and less than 20 is denoted as A)
NRAS/KRAS (ratio of KD value with respect to NRAS to KD value with respect to KRAS) ([2]; SPR, GDP-bound NRAS wild-type vs GDP-bound KRAS wild-type): AA (a compound having 20 or more is denoted as AA)

CCCN1C(=O)CN(C)C(=O)CN(CC)C(=O)[C@H]([C@@H](C)CC)NC(=O)[C@H](CC(C)C)N(C)C(=O)C[C@@H](C(=O)N2CCOCC2)N(C)C(=O)[C@H](C2CCCC2)N(C)C(=O)C2(CCC2)NC(=O)[C@@H]2C[C@@H](OCC)CN2C(=O)[C@H](CCc2ccc(C(F)(F)F)c(Cl)c2)NC(=O)CN(C)C(=O)[C@@H]1Cc1ccc(C(F)(F)F)cc1 [PP0401] ([NMeL]I[NEtG][Sar][NPrPhe(4-CF3)][Sar][hPhe(3-Cl-4-CF3)][Hyp](Et)[Ac4c][NMeGly(cPent)][NMeD]-Morpholide; lactam N-11)
HRAS/KRAS (ratio of KD for GDP-bound HRAS wild-type to KD for KRAS) ([1]; SPR): B (a compound having 3 or more and less than 10 is denoted as B)
NRAS/KRAS (ratio of KD for GDP-bound NRAS wild-type to KD for KRAS) ([2]; SPR): B (a compound having 3 or more and less than 10 is denoted as B)

CCC[C@H]1C(=O)N[C@@H](CC(C)C)C(=O)N(CCOC)CC(=O)N(C)[C@H]2C/C=C\CCN(C2=O)[C@@H](Cc2ccc(C)cc2)C(=O)N(C)CC(=O)N[C@@H](CCc2ccc(C(F)(F)F)c(Cl)c2)C(=O)N2C[C@H](OCC)C[C@H]2C(=O)NC2(CCC2)C(=O)N(C)[C@@H](C2CCCC2)C(=O)N(C)[C@H](C(=O)N(C)C)CC(=O)N1C [PP2546]
HRAS/KRAS (ratio of KD value with respect to GDP-bound HRAS wild-type protein to KD value with respect to KRAS) ([1]; class symbols): B (a compound having 3 or more and less than 10 is denoted as B)
NRAS/KRAS (ratio of KD value with respect to GDP-bound NRAS wild-type protein to KD value with respect to KRAS) ([2]; class symbols): B (a compound having 3 or more and less than 10 is denoted as B)

C=CCCN1C(=O)CN(C)C(=O)CN(C)C(=O)[C@H]([C@@H](C)CC)NC(=O)[C@H](CC(C)C)N(C)C(=O)C[C@@H](C(=O)N2CCOCC2)N(C)C(=O)[C@H](C2CCCC2)N(C)C(=O)C2(CCCC2)NC(=O)[C@@H]2CCCN2C(=O)[C@H](CCc2ccc(C(F)(F)F)c(Cl)c2)NC(=O)CN(C)C(=O)[C@@H]1Cc1ccc(C)cc1 [PP0101] ([NMeL]I[Sar][Sar][X48][Sar][hPhe(3-Cl-4-CF3)]P[Ac5c][NMeGly(cPent)][NMeD]-Morpholide; lactam N-11)
HRAS/KRAS (ratio of KD for GDP-bound HRAS wild-type to KD for KRAS) ([1]; SPR): C (A compound having a KD ratio of 0.1 or more and less than 3 is denoted as C)
NRAS/KRAS (ratio of KD for GDP-bound NRAS wild-type to KD for KRAS) ([2]; SPR): B (a compound having 3 or more and less than 10 is denoted as B)

CCCN1C(=O)CN(C)C(=O)CN(CC)C(=O)[C@H]([C@@H](C)CC)NC(=O)[C@H](CC(C)C)N(C)C(=O)C[C@@H](C(=O)N2CCOCC2)N(C)C(=O)[C@H](C2CCCC2)N(C)C(=O)C2(CCCC2)NC(=O)CN(C)C(=O)[C@H](CCc2ccc(C(F)(F)F)c(Cl)c2)NC(=O)CN(C)C(=O)[C@@H]1Cc1ccc(C(F)(F)F)cc1 [PP0300] ([NMeL]I[NEtG][Sar][NPrPhe(4-CF3)][Sar][hPhe(3-Cl-4-CF3)][Sar][Ac5c][NMeGly(cPent)][NMeD]-Morpholide; lactam N-11)
HRAS/KRAS (ratio of KD for GDP-bound HRAS wild-type to KD for KRAS) ([1]; SPR): C (A compound having a KD ratio of 0.1 or more and less than 3 is denoted as C)
NRAS/KRAS (ratio of KD for GDP-bound NRAS wild-type to KD for KRAS) ([2]; SPR): B (a compound having 3 or more and less than 10 is denoted as B)

CCC[C@H]1C(=O)N[C@@H](C2CCCC2)C(=O)N(C)CC(=O)N(C)[C@H]2C/C=C\CCN(C2=O)[C@@H](Cc2ccc(C)cc2)C(=O)N(C)CC(=O)N[C@@H](CCc2ccc(C(F)(F)F)c(OC)c2)C(=O)N2C[C@H](OCC)C[C@H]2C(=O)NC2(CC(C)(C)C2)C(=O)N(C)[C@@H](C2CCCC2)C(=O)N(C)[C@H](C(=O)N(C)C)CC(=O)N1C [PP2992]
HRAS/KRAS (ratio of KD value with respect to GDP-bound HRAS wild-type protein to KD value with respect to KRAS) [1, 3]: A (a compound having 10 or more and less than 20 is denoted as A)
NRAS/KRAS (ratio of KD value with respect to GDP-bound NRAS wild-type protein to KD value with respect to KRAS) [2, 3]: AA (a compound having 20 or more is denoted as AA)
